Experiments:
[1] = test system: CASOB (Sicklepod); test: Postemergence herbicidal evaluation; assay type: in vivo, Cassia obtusifolia; settings: postemergence
Summary of the method: (§1)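 Each compound, dispersed in an acetone/water mix (50/50) carrying 0.5% TWEEN 20, is nozzle-sprayed at 40 psi on approximately two-week-old seedlings at about 0.0156–0.500 kg/ha. Plants are assessed 4–5 weeks afterward on a 0–9 scale relative to control; duplicate tests are averaged.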

[2] = test system: CHEAL (Lambsquarters, Common); test: Postemergence herbicidal evaluation; assay type: in vivo, Chenopodium album; settings: postemergence
Summary of the method: as §1

[3] = test system: ECHCG (Barnyardgrass); test: Postemergence herbicidal evaluation; assay type: in vivo, Echinochloa crus-galli; settings: postemergence
Summary of the method: as §1

[4] = test system: ORYSAT (Rice, Tebonnet); test: Postemergence herbicidal evaluation; assay type: in vivo, Oryza sativa, (L.) Tebonnet; settings: postemergence
Summary of the method: as §1

[5] = test system: GALAP (Galium); test: Preemergence herbicidal evaluation; assay type: in vivo, Galium aparine; settings: rated 4-5 weeks after treatment, rating scale 0-9
Summary of the method: (§2)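 Test compound, dissolved in aqueous acetone, was sprayed over planted soil cups at an equivalent of about 0.0156 to 0.500 kg/ha; seeds had been mixed with potting soil. Greenhouse growth followed, with visual 0-9 scoring of injury at four to five weeks.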

[6] = test system: SETVI (Foxtail, Green); test: Preemergence herbicidal evaluation; assay type: in vivo, Setaria viridis; settings: rated 4-5 weeks after treatment, rating scale 0-9
Summary of the method: as §2

[7] = test system: GLXMAW (Soybean, Williams); test: Preemergence herbicidal evaluation; assay type: in vivo, Glycine max, (L.) Merr. cv Williams; settings: rated 4-5 weeks after treatment, rating scale 0-9
Summary of the method: as §2

[8] = test system: ORYSAT (Rice, Tebonnet); test: Preemergence herbicidal evaluation; assay type: in vivo, Oryza sativa, (L.) Tebonnet; settings: rated 4-5 weeks after treatment, rating scale 0-9
Summary of the method: as §2

[9] = test system: TRZAWR (Wheat, Winter, cv Riband); test: Preemergence herbicidal evaluation; assay type: in vivo, Triticum aestivum; settings: rated 4-5 weeks after treatment, rating scale 0-9
Summary of the method: as §2

[10] = test system: ZEAMX (Corn, Field); test: Preemergence herbicidal evaluation; assay type: in vivo, Zea mays; settings: rated 4-5 weeks after treatment, rating scale 0-9
Summary of the method: as §2

[11] = test system: CYPIR (Rice Flatsedge); test: Preemergence weed control under flooded paddy conditions; assay type: in vivo, Cyperus iria; settings: 0.2500 kg/ha, rated 3-4 weeks after treatment
Summary of the method: (§3)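 Ratings on a 0-9 visual scale cover stand, vigor, malformation, size, chlorosis and overall appearance relative to a control, taken three to four weeks post-treatment. Application was into flood water over freshly sown silt loam at roughly 0.0313 to 0.500 kg/ha.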

[12] = test system: MOOVA (Monochoria); test: as above; assay type: in vivo, Monochoria vaginalis; settings: 0.2500 kg/ha, rated 3-4 weeks after treatment
Summary of the method: as §3

[13] = test system: SAGPY (Arrowhead (Pygmaea)); test: as above; assay type: in vivo, Sagittaria pygmaea; settings: 0.2500 kg/ha, rated 3-4 weeks after treatment
Summary of the method: as §3

Row | SMILES | herbicidal rating CASOB ([1]; rate 0.0156 kg/ha) | herbicidal rating CASOB ([1]; rate 0.0313 kg/ha) | herbicidal rating CASOB ([1]; rate 0.0625 kg/ha) | herbicidal rating CHEAL ([2]; rate 0.0156 kg/ha) | herbicidal rating CHEAL ([2]; rate 0.0313 kg/ha) | herbicidal rating CHEAL ([2]; rate 0.0625 kg/ha) | herbicidal rating ECHCG ([3]; rate 0.0156 kg/ha) | herbicidal rating ECHCG ([3]; rate 0.0313 kg/ha) | herbicidal rating ECHCG ([3]; rate 0.0625 kg/ha) | herbicidal rating ORYSAT ([4]; rate 0.0156 kg/ha) | herbicidal rating ORYSAT ([4]; rate 0.0313 kg/ha) | herbicidal rating ORYSAT ([4]; rate 0.0625 kg/ha) | Preemergence herbicidal rating GALAP ([5]; rate 0.1250 kg/ha) | Preemergence herbicidal rating GALAP ([5]; rate 0.2500 kg/ha) | Preemergence herbicidal rating SETVI ([6]; rate 0.1250 kg/ha) | Preemergence herbicidal rating SETVI ([6]; rate 0.2500 kg/ha) | Preemergence herbicidal rating GLXMAW ([7]; rate 0.1250 kg/ha) | Preemergence herbicidal rating GLXMAW ([7]; rate 0.2500 kg/ha) | Preemergence herbicidal rating ORYSAT ([8]; rate 0.1250 kg/ha) | Preemergence herbicidal rating ORYSAT ([8]; rate 0.2500 kg/ha) | other results
1 | CSCCN1C(=O)CSC1=Nc1cc(-n2c(=O)cc(C(F)(F)F)n(C)c2=O)c(F)cc1Cl [Compound 157] | 0.0 | 0.0 | 3.0 | 2.0 | 4.0 | 9.0 | 0.0 | 1.0 | 2.0 | 2.0 | 2.5 | 3.0 | 0.0 | 4.0 | 2.0 | 1.0 | 2.0 | 4.0 | 0.0 | 0.0 | Preemergence herbicidal rating GALAP ([5]; rate 0.0313 kg/ha): 0.0; Preemergence herbicidal rating GALAP ([5]; rate 0.0625 kg/ha): 0.0; Preemergence herbicidal rating SETVI ([6]; rate 0.0313 kg/ha): 0.0; Preemergence herbicidal rating SETVI ([6]; rate 0.0625 kg/ha): 0.0; Preemergence herbicidal rating GLXMAW ([7]; rate 0.0313 kg/ha): 1.0; Preemergence herbicidal rating GLXMAW ([7]; rate 0.0625 kg/ha): 0.0; Preemergence herbicidal rating ORYSAT ([8]; rate 0.0313 kg/ha): 0.0; Preemergence herbicidal rating ORYSAT ([8]; rate 0.0625 kg/ha): 0.0; Preemergence herbicidal rating TRZAWR ([9]; rate 0.0313 kg/ha): 0.0; Preemergence herbicidal rating TRZAWR ([9]; rate 0.0625 kg/ha): 0.0; Preemergence herbicidal rating TRZAWR ([9]; rate 0.1250 kg/ha): 0.0; Preemergence herbicidal rating TRZAWR ([9]; rate 0.2500 kg/ha): 0.0; Preemergence herbicidal rating ZEAMX ([10]; rate 0.0313 kg/ha): 0.0; Preemergence herbicidal rating ZEAMX ([10]; rate 0.0625 kg/ha): 0.0; Preemergence herbicidal rating ZEAMX ([10]; rate 0.1250 kg/ha): 1.0; Preemergence herbicidal rating ZEAMX ([10]; rate 0.2500 kg/ha): 1.0; herbicidal effect rating, CYPIR [11]: 0.0; herbicidal effect rating, MOOVA [12]: 0.0; herbicidal effect rating, SAGPY [13]: 0.0
2 | COc1ccc(CN2C(=O)CSC2=Nc2cc(-n3c(=O)cc(C(F)(F)F)n(C)c3=O)c(F)cc2Cl)cc1OC [Compound 134, 3-{4-Chloro-5-{[3-(3,4-dimethoxybenzyl)-4-oxo-2-thiazolidinylidene]amino}-2-fluorophenyl}-1-methyl-6-(trifluoromethyl)-2,4(1H,3H)-pyrimidinedione] | 0.0 | 0.0 | 0.0 | 1.0 | 3.0 | 4.0 | 0.0 | 2.0 | 1.0 | 1.0 | 1.5 | 2.0 | 1.0 | 0.0 | 0.0 | 2.0 | 0.0 | 0.0 | 0.0 | 0.0 | Preemergence herbicidal rating TRZAWR ([9]; rate 0.1250 kg/ha): 0.0; Preemergence herbicidal rating TRZAWR ([9]; rate 0.2500 kg/ha): 0.0; Preemergence herbicidal rating ZEAMX ([10]; rate 0.1250 kg/ha): 0.0; Preemergence herbicidal rating ZEAMX ([10]; rate 0.2500 kg/ha): 0.0; herbicidal effect rating, CYPIR [11]: 3.0; herbicidal effect rating, MOOVA [12]: 2.0; herbicidal effect rating, SAGPY [13]: 0.0

Reference: patent publication US20020137929A1, “1 - (3-heterocyclylphenyl) isothiourea, -isourea, -guanidine and -amidine herbicidal agents” (Intellectual Property Department, BASF Aktiengesellschaft, priority 1998, published 2002)
